1 substance from US9066945B2, “Ectoparasiticidal active substance combinations” (Bayer Intellectual Property GmbH, priority 2010, dated 2015) can be followed below.

In this assay the test system is adult fleas (Ctenocephalides felis). In words: In vitro contact test with fleas (coated test tubes). The conditions noted are these: B-11 alone. The text has this:
According to S. R. Colby, Weeds 15 (1967), 20-22, the expected action for a given combination of two active compounds can be calculated as follows: if • X is the kill rate, expressed in % of the untreated control, when employing active compound A at an application rate of m g/ha or in a concentration of m ppm, • Y is the kill rate, expressed in % of the untreated control, when employing active compound B at an application rate of n g/ha or in a concentration of n ppm and • E is the kill rate, expressed in % of the untreated control, when employing active compounds A and B at application rates of m and n g/ha or in a concentration of m and n ppm, • then
In this case, the actually observed kill rate must exceed the value calculated using the above formula for the expected kill rate (E).
In vitro contact tests with ticks and fleas
From Table 1, representatives of important classes of active compounds (component B) were now tested in combination with pyrazine derivatives of the formula (I) according to the invention as component A against arachnids and insects. To this end, roll-necked test tubes were coated with a solution of active compound A or B or a combination of the two in acetone (2 h of swing rotation at 30 rpm in a fume cupboard). […]

With demiditraz [B-11], the “insecticidal activity in the contact test method” value is “no insecticidal activity”.
